Three compounds from US20260109714A1, “PYRIMIDINE-FUSED RING COMPOUND, AND PREPARATION METHOD THEREFOR AND USE THEREOF” (GENFLEET THERAPEUTICS (SHANGHAI) INC., priority 2022, published 2026) can be followed below.

Data set [1] concerns AsPC-1 human pancreatic cancer cell with KRAS G12D mutation. Kind of data set: Cell proliferation inhibition experiment, 3D CellTiter-Glo, AsPC-1. The data set is classed as cell-based. The following applies: AsPC-1 cells, 3D spheroid, 5 days. In short, it runs like this: (§1)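 3D spheroids (800 AsPC-1 or 400 AGS cells/well) established overnight, then treated with 3.16-fold compound dilutions (0.1% DMSO) for 5 days. Viability read by CellTiter-Glo 3D luminescence; inhibition normalised to DMSO and medium blank, IC50 by four-parameter fit.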
(In general: In ATP-based viability assays light output follows the ATP content of the culture.)

Data set [2] has as its system AGS human gastric cancer cell line with KRAS G12D mutation. Put plainly: Cell proliferation inhibition experiment, 3D CellTiter-Glo, AGS. The data set is classed as cell-based. The following applies: AGS cells, 3D spheroid, 5 days. In short, it runs like this: as §1
The test system of the next data set is AGS p-ERK. Kind of data set: Cell assay for p-ERK (HTRF, Advance ERK phospho-T202/Y204 kit). Particulars: AGS cells (KRAS G12D), 3 hrs with compound, inhibition of p-ERK level. The data set is classed as cell-based, human. The essentials:
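KRAS G12D AGS gastric cancer cells were plated overnight, then exposed 3 h to 3.16-fold compound dilutions at 0.1% DMSO final. Lysates were probed for ERK phospho-T202/Y204 by HTRF after 4 h. Inhibition relative to DMSO and blank was fitted by four-parameter regression for IC50.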

The nature of data set [3]: Pharmacokinetic evaluation test in mice. Particulars: PO group, 10 mpk, male CD-1 mice.
Description: (§2) Test objective: Male CD-1 mice were used as test animals. The drug concentrations in plasma of mice at various times were determined by LC/MS/MS after intravenous and oral administration of the test compounds. The pharmacokinetic behavior of the test compounds in mice was studied and their pharmacokinetic characteristics were evaluated.
(§3) Test methods: test animals: 60 healthy adult male CD-1 mice, aged 6-8 weeks and weighing about 30 g, and divided into 10 groups, including IV groups (intravenous injection group, five groups), with 6 mice in each group; and PO groups (oral administration group, five groups), with 6 mice in each group.
(§4) Preparation of drug solution: IV group: Taking 10 mL sample solution as an example, 2 mg sample was weighed, 0.5 mL DMSO and 1 mL Solutol HS 15 were sequentially added, and then 8.5 mL 6% HP-β-CD was added, and stirred ultrasonically to obtain a clear solution of 0.2 mg/mL.
(§5) PO group 1: Taking 10 mL sample solution as an example, 10 mg sample was weighed, 0.5 mL DMSO and 1 mL Solutol HS 15 were sequentially added, and then 8.5 mL 6% HP-β-CD was added, and stirred ultrasonically to obtain a 1 mg/mL solution.
(§6) PO group 2: A 3 mg/mL solution of the sample was prepared according to the preparation method for PO group 1.
(§7) Administration: After overnight fasting, the mice in the IV group were administered with a volume of 5 mL/kg at a dose of 1 mg/kg.
(§8) PO group 1: The mice were administered with a volume of 10 mL/kg at a dose of 10 mg/kg.
(§9) PO group 2: The mice were administered with a volume of 10 mL/kg at a dose of 30 mg/kg.
(§10) Experimental operations: Male CD-1 mice in the intravenous injection group and oral administration group were given the test compound, respectively. After that, 50 μl of blood was periodically collected into a K2EDTA anticoagulation tube at 0.0833, 0.25, 0.5, 1, 2, 4, 6, 8 and 24 hrs, and the plasma was separated by centrifugation at 4° C. and 8000 rpm for 15 min. The plasma was stored in dry ice at −80° C. 4 hrs after administration, the animals were allowed to free access to food. The contents of the test compounds in plasma of mice after intravenous and oral administration were determined by LC/MS/MS. The linear range of the method was 1-3000 ng/ml. The plasma samples were treated with acetonitrile to precipitate the protein and then analyzed.
The nature of the next data set: in vivo. Particulars: male, CD-1, mouse, po, 30 mg/kg.

Broadly, the IC50 is the concentration at which inhibition is half-maximal. The AUC(0-t) is the area under the concentration-time curve up to a stated or last time point. A higher AUC(0-t) goes with high exposure. What is called bioavailability is the share of a dose that reaches the circulation, judged against a reference dose that is usually intravenous.

Description for in vivo: as §2, §3, §4, §5, §6, §7, §8, §9, §10

Consider `C#Cc1c(F)ccc2cc(O)cc(-c3nc4c5c(nc(OC[C@@]67CCCN6C[C@H](F)C7)nc5c3F)N3C[C@H]5CC[C@H](N5)[C@H]3CO4)c12` [Z131-1, 5-ethynyl-6-fluoro-4-((5aS,6S,9R)-1-fluoro-12-(((2R,7aS)-2-fluorotetrahydro-1H-pyrrolizin-7a(5H)-yl)methoxy)-5a,6,7,8,9,10-hexahydro-5H-4-oxo-3,10a,11,13,14-pentaaza-6,9-methanonaphtho[1,8-ab]hepten-2-yl)naphthalen-2-ol], for which the 50% inhibitory concentration (IC50) in data set [1] stood at 32.8 nM; in data set [2], 2.53 nM; with AGS p-ERK, 1.58 nM. In addition, the “F (%) bioavailability” value in data set [3] stood at 0.9%. Further, the “AUClast” value in data set [3] (plasma) stood at 40.4 ng·h/mL.

On to `[2H]C([2H])([2H])[C@@H]1Oc2nc(-c3cc(N)cc(Cl)c3C(F)(F)F)c(F)c3nc(OC[C@@]45CCCN4CC(=C(F)F)C5)nc(c23)N2C[C@H]3CC[C@H](N3)[C@@H]12` [Z1054, 3-chloro-5-((5S,5aS,6S,9R)-12-(((S)-2-(difluoromethylene)tetrahydro-1H-pyrrolizin-7a(5H)-yl)methoxy)-1-fluoro-5-(methyl-d3)-5a,6,7,8,9,10-hexahydro-5H-4-oxa-3,10a,11,13,14-pentaaza-6,9-methanonaphtho[1,8-ab]hepten-2-yl)-4-(trifluoromethyl) aniline], for which the IC50 in data set [1] (Homo sapiens, ASPC1, 120 h) is 1.29 nM; in data set [2] (Homo sapiens, 120 h), 0.37 nM; in the data set with AGS p-ERK (Homo sapiens), 0.43 nM. Moreover, in the data set “in vivo”, the AUC(0-t) is 3250 ng·h/mL. The compound also came in with a bioavailability in “in vivo” of 29.4%.

`C[C@@H]1Oc2nc(-c3cc(N)cc(Cl)c3C(F)(F)F)c(F)c3nc(OC[C@@]45CCCN4CC(=C(F)F)C5)nc(c23)N2C[C@H]3CC[C@H](N3)[C@@H]12` [Z1084, 3-chloro-5-((5S,5aS,6S,9R)-12-(((S)-2-(difluoromethylene)tetrahydro-1H-pyrrolizin-7a(5H)-yl)methoxy)-1-fluoro-5-methyl-5a,6,7,8,9,10-hexahydro-5H-4-oxa-3,10a,11,13,14-pentaaza-6,9-methanonaphtho[1,8-ab]hepten-2-yl)-4-(trifluoromethyl) aniline]: the IC50 in data set [1] (Homo sapiens, ASPC1, 120 h) amounted to 1.23 nM; in data set [2] (Homo sapiens, 120 h), 0.38 nM; with AGS p-ERK (Homo sapiens), 0.12 nM. This compound also registered an AUC(0-t) in the data set “in vivo” of 2440 ng·h/mL. In “in vivo”, this compound had a bioavailability of 20.7%.
